According to patent US20130022620A1, “ASSAYS AND METHODS PERTAINING TO PRE-AMYLOID INTERMEDIATES” (priority 2011, published 2013):

Key:
sRAGE [1] = target: T1, sRAGE (Homo sapiens, UniProt Q15109); test: Tryptophan fluorescence quenching assay of sRAGE binding; settings: sRAGE added at different time points of the reaction, 1:1 molar ratio
T1 construct: the soluble extracellular domain of RAGE (sRAGE); made in house; host or cells: Sf9 insect cells (baculovirus)
Excerpt: The quenching of tryptophan fluorescence indicates binding. Fluorescence measurements were made at right angle in a […] dual path length quartz cuvette, using a Photon Technology International fluorescent spectrometer (280 nm excitation and 350 nm emission). Background fluorescence from buffer and IAPP peptides were negligible. The fluorescence quantum yield reported for each time point is an average of 20 reads over 20 seconds (2.5 nm bandwidth and 1 second integration time). Final solution conditions contained 16 mM tris HCl (pH 7.4).

mouse pancreatic islets = test: AlamarBlue cell viability assay of pancreatic islets; type: cell-based; settings: FVB
[2] = Thioflavin-T kinetics and TEM of amyloid formation by IAPP peptides; type: physicochemical; settings: wild type IAPP under the conditions described
Description: Thioflavin-T fluorescence was used to monitor the time course of h-IAPP amyloid formation in the presence and absence of sRAGE. To identify which form(s) of h-IAPP interact with RAGE, sRAGE was added to h-IAPP at various time points during the h-IAPP amyloid formation reaction. Aliquots of the reaction mixture were analyzed by adding 100 uL aliquots of the amyloid formation reaction to 96-well plates containing 8 uL of 60 uM thioflavin-T solution at various incubation times after initiation of the amyloid formation reaction. Fluorescence was measured using a Beckman Coulter DTX880 fluorescent plate reader (excitation: 445 nm and emission: 485 nm). Final solution conditions contained 16 mM tris HCl and […] thioflavin-T (pH 7.4). […] All values represent means±SEM (n=3).
Transient kinetic species of h-IAPP were characterized by TEM. TEM images confirm the presence or absence of amyloid which were indicated by thioflavin-T fluorescence. Aliquots (4 μl) were removed from the reaction mixtures monitored by thioflavin-T assays, placed on a carbon-coated 200-mesh copper grid and negatively stained with saturated uranyl acetate. The samples were imaged with a Philips CM12 transmission electron microscope at the New York University electron microscopy core facility. Final solution conditions contained 16 mM tris HCl (pH 7.4).

[3] = system: MCP-1 and IL-1β mRNA expression; test: qRT-PCR of MCP-1 and IL-1β mRNA in smooth muscle cells; type: cell-based, mouse; settings: peptide stimulation
Description: Mouse vascular SMCs were cultured from the aortas of 10-week-old male mice using a modification of the procedure of Tarvo and Barret. See Tarvo et al. Blood Vessels. 1980; 17:110-116. SMCs were cultured following an explant protocol in accordance with institutional guidelines. Cultures were composed of 95% SM-α-actin positivity based on immunostaining.
(§1) Assays for qRT-PCR were carried out in 6-well plates. Total cellular RNA was isolated from h-IAPP stimulated β-cells using Qiagen RNA isolation kit, and the quality of RNA samples was determined by measurement of 260:280 ratio. Only samples with a 260:280 ratio of 2.0 or higher were used for reverse transcription. RNA samples were also treated by RNAse-free DNAse to avoid genomic DNA contamination. One microgram of RNA from each sample was reverse-transcribed to cDNA using MCP-1 and IL-1β primers. Non-template negative controls were also performed to monitor non-specific reactions. RNA isolated from rat IAPP and non-h-IAPP treated beta cells were used as negative controls. Equal amounts of RNA were used in each qRT-PCR reaction, and 18S was used as the internal control for amplification at the same time. qRT-PCR reactions were carried out using an Applied Biosystems 7500 RealTime PCR machine. The relative mRNA contents were normalized using 18S and quantification was carried out using qRT-PCR Quantifier Software.

[4] = type: physicochemical
Description: We recorded 2D-IR spectra of the intermediate species. The results are consistent with a lack of beta sheet structure and support the CD data (FIG. 4B). […] Samples of h-IAPP intermediates and h-IAPP amyloid fibrils were pelleted at 20,000 G for 20 minutes and the amount of soluble peptide remaining in the supernatant was measured. […] Characterization of the species in the supernatant and resuspended pellet by thioflavin-T and TEM, before addition of the solutions to cultured cells, confirm the absence of amyloid in the soluble phase and the presence of amyloid in the resuspended pellet. […] ANS is a small hydrophobic dye which has been widely used in protein folding studies. It typically binds to partially structured states which are rich in secondary structure, compact, but which have not yet established the final tertiary structure. […] The dye did bind to the final amyloid fibrils; an effect that is mediated in part by electrostatic interactions. A set of p-cyano-phenylalanine (p-cyanoPhe) analogs of h-IAPP were examined to probe further the nature of the toxic intermediate species. h-IAPP contains two phenylalanines at positions 15 and 23 and a single tyrosine located at the C-terminus. A set of three analogs were prepared in which one aromatic residue was replaced by p-cyanoPhe. […] It can also be quenched via FRET to tyrosine. p-CyanoPhe fluorescence is high for unaggregated IAPP and is quenched in the amyloid fibers. The intermediate species have high p-cyanoPhe fluorescence intensity and the value is the same as that of freshly dissolved material.

[5] = Far-UV CD of h-IAPP species; type: physicochemical; settings: at time points of toxicity
Description: CD measurements of IAPP, sRAGE and IAPP/sRAGE reactions were taken at various incubation times. Far-UV CD experiments monitor the development of secondary structure of h-IAPP species and give insight into the conformational requirement for IAPP/RAGE-binding. All CD experiments were performed on an Applied Photophysics circular dichroism spectrophotometer by directly transferring 300 μL of peptide solution from kinetic assays into a 0.1 cm quartz cuvette a few minutes prior to data collection. The CD spectra for sRAGE and tris HCl buffer was subtracted from all RAGE/IAPP mixtures. The final far-UV CD data was collected over the range of 190 to 260 nm. Final solution conditions contained 16 mM tris HCl (pH 7.4).

[6] = system: MCP-1 and IL-1β mRNA expression; test: qRT-PCR of MCP-1 and IL-1β mRNA in β-cells; type: cell-based, rat; settings: β-cells stimulated with peptide
Description: as §1

sRAGE [7] = target: T1, sRAGE; test: Surface plasmon resonance binding to immobilized sRAGE; settings: 20 μM h-IAPP
Description: A 20 μM h-IAPP solution was prepared in 16 mM tris HCl buffer (pH 7.4) and aliquots of the reaction were analyzed for binding at various incubation times after peptide dissolution. All SPR binding experiments were carried out on a GE Healthcare SPR instrument in the laboratory of Dr. Donald Landry at Columbia University Medical Center.

T1 sequence (Q15109 23-342): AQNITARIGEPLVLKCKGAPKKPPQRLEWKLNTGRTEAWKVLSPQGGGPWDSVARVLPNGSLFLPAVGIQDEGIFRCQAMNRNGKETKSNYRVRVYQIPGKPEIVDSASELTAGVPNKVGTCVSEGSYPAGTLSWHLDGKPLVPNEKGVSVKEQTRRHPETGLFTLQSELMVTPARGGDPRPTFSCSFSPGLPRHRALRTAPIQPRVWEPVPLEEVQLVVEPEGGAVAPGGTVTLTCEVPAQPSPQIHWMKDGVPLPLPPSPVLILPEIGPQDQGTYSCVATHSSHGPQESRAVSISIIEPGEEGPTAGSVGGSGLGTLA

## CC[C@H](C)[C@H](NC(=O)[C@H](C)NC(=O)CNC(=O)[C@H](Cc1ccccc1)NC(=O)[C@H](CC(N)=O)NC(=O)[C@H](CC(N)=O)NC(=O)[C@H](CO)NC(=O)[C@H](CO)NC(=O)[C@H](Cc1c[nH]cn1)NC(=O)[C@@H](NC(=O)[C@H](CC(C)C)NC(=O)[C@H](Cc1ccccc1)NC(=O)[C@H](CC(N)=O)NC(=O)[C@H](C)NC(=O)[C@H](CC(C)C)NC(=O)[C@H](CCCNC(=N)N)NC(=O)[C@H](CCC(N)=O)NC(=O)[C@@H](NC(=O)[C@H](C)NC(=O)[C@@H]1CSSC[C@H](NC(=O)[C@@H](N)CCCCN)C(=O)N[C@@H](CC(N)=O)C(=O)N[C@@H]([C@@H](C)O)C(=O)N[C@@H](C)C(=O)N[C@@H]([C@@H](C)O)C(=O)N1)[C@@H](C)O)C(C)C)C(=O)N[C@@H](CC(C)C)C(=O)N[C@@H](CO)C(=O)N[C@@H](CO)C(=O)N[C@H](C(=O)N[C@@H](CC(N)=O)C(=O)N[C@H](C(=O)NCC(=O)N[C@@H](CO)C(=O)N[C@@H](CC(N)=O)C(=O)N[C@H](C(=O)N[C@@H](Cc1ccc(O)cc1)C(N)=O)[C@@H](C)O)C(C)C)[C@@H](C)O [h-IAPP, human islet amyloid polypeptide]
sRAGE [1]
  binding to sRAGE (tryptophan fluorescence quenching): wave of fluorescence quenching
Mouse pancreatic islets
  loss in viability relative to buffer treatment alone: 50%
[2]
  time at which the amyloid formation reaction reaches saturation: about 40 hrs
[3]
  MCP-1 and IL-1β mRNA expression in smooth muscle cells: increase in MCP-1 and IL-1β mRNA expression
[4]
  protein pelleted: 6.5%
  solubility of toxic oligomers (centrifugation): soluble and cannot be pelleted
  solubility of toxic species (ultracentrifugation): soluble
[4]; 20 min
  protein remained in solution: 93.5%
[5]
  secondary structure (far UV CD): some partial helical structure, but no beta sheet structure
[6]
  MCP-1 and IL-1β mRNA expression: increase in MCP-1 and IL-1β mRNA expression
sRAGE [7]; intermediates
  RAGE binding of transiently populated intermediates (SPR): binds transiently populated intermediates
sRAGE [7]; monomers or amyloid fibrils
  RAGE binding of monomers or amyloid fibrils (SPR): does not bind to h-IAPP monomers or amyloid fibrils
